Where “and” joins values, the source holds several entries; their conditions need not be identical. Equal entries are not always repeated. Inconclusive results and toxic doses are left out.
Tested on: CD2F1 mice, L1210 leukemia ip, survival T/C
Experiment: NCI In Vivo Anticancer Drug Screen. Data for tumor model L1210 Leukemia (intraperitoneal) in CD2F1 (CDF1) mice
Details: higher = longer survival
Summary of the method: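 Each value reflects a quotient of treated over vehicle control outcomes in mice with a transplanted tumor.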

[1] = endpoint: mean survival time, dose: 100.0 mg/kg/injection, schedule: Q01DX009 (ip), vehicle: saline with Tween-80
[2] = endpoint: mean survival time, dose: 200.0 mg/kg/injection, schedule: Q01DX009 (ip), vehicle: saline with Tween-80
[3] = endpoint: mean survival time, dose: 400.0 mg/kg/injection, schedule: Q01DX009 (ip), vehicle: saline with Tween-80
[4] = endpoint: mean survival time, dose: 100.0 mg/kg/injection, schedule: Q01DX001 (ip), vehicle: saline with Tween-80
[5] = endpoint: mean survival time, dose: 100.0 mg/kg/injection, schedule: Q04DX003 (ip), vehicle: saline with Tween-80
[6] = endpoint: mean survival time, dose: 200.0 mg/kg/injection, schedule: Q01DX001 (ip), vehicle: saline with Tween-80
[7] = endpoint: mean survival time, dose: 200.0 mg/kg/injection, schedule: Q04DX003 (ip), vehicle: saline with Tween-80
[8] = endpoint: mean survival time, dose: 400.0 mg/kg/injection, schedule: Q01DX001 (ip), vehicle: saline with Tween-80
[9] = endpoint: mean survival time, dose: 400.0 mg/kg/injection, schedule: Q04DX003 (ip), vehicle: saline with Tween-80

SMILES: CC[C@H]1CN2CCc3cc(OC)c(OC)cc3[C@@H]2C[C@@H]1C[C@H]1NCCc2cc(OC)c(OC)cc21
- T/C (endpoint: mean survival time, dose: 2.0 mg/kg/injection, schedule: Q01DX007 (ip), vehicle: Klucel (hydroxypropylcellulose) (HPC)): 107 % of control
- T/C (endpoint: mean survival time, dose: 2.0 mg/kg/injection, schedule: Q01DX009 (ip), vehicle: Klucel (hydroxypropylcellulose) (HPC)): 108 % of control
- T/C (endpoint: mean survival time, dose: 2.0 mg/kg/injection, schedule: Q02DX005 (ip), vehicle: saline): 93 % of control and 102 % of control
- T/C (endpoint: mean survival time, dose: 2.0 mg/kg/injection, schedule: Q03DX003 (ip), vehicle: Klucel (hydroxypropylcellulose) (HPC)): 110 % of control
- T/C (endpoint: mean survival time, dose: 2.0 mg/kg/injection, schedule: Q04DX003 (ip), vehicle: Klucel (hydroxypropylcellulose) (HPC)): 104 % of control
- T/C (endpoint: mean survival time, dose: 4.0 mg/kg/injection, schedule: Q01DX007 (ip), vehicle: Klucel (hydroxypropylcellulose) (HPC)): 118 % of control
- T/C (endpoint: mean survival time, dose: 4.0 mg/kg/injection, schedule: Q01DX009 (ip), vehicle: Klucel (hydroxypropylcellulose) (HPC)): 122 % of control
- T/C (endpoint: mean survival time, dose: 4.0 mg/kg/injection, schedule: Q02DX005 (ip), vehicle: saline): 104 % of control
- T/C (endpoint: mean survival time, dose: 4.0 mg/kg/injection, schedule: Q03DX003 (ip), vehicle: Klucel (hydroxypropylcellulose) (HPC)): 106 % of control
- T/C (endpoint: mean survival time, dose: 4.0 mg/kg/injection, schedule: Q04DX003 (ip), vehicle: Klucel (hydroxypropylcellulose) (HPC)): 104 % of control
- T/C (endpoint: mean survival time, dose: 8.0 mg/kg/injection, schedule: Q01DX007 (ip), vehicle: Klucel (hydroxypropylcellulose) (HPC)): 105 % of control
- T/C (endpoint: mean survival time, dose: 8.0 mg/kg/injection, schedule: Q01DX009 (ip), vehicle: Klucel (hydroxypropylcellulose) (HPC)): 101 % of control
- T/C (endpoint: mean survival time, dose: 8.0 mg/kg/injection, schedule: Q03DX003 (ip), vehicle: Klucel (hydroxypropylcellulose) (HPC)): 110 % of control
- T/C (endpoint: mean survival time, dose: 8.0 mg/kg/injection, schedule: Q04DX003 (ip), vehicle: Klucel (hydroxypropylcellulose) (HPC)): 110 % of control
- T/C (endpoint: mean survival time, dose: 25.0 mg/kg/injection, schedule: Q04DX003 (ip), vehicle: saline with Tween-80): 164 % of control and 195 % of control
- T/C (endpoint: mean survival time, dose: 30.0 mg/kg/injection, schedule: Q04DX003 (ip), vehicle: saline with Tween-80): 124 % of control
- T/C (endpoint: mean survival time, dose: 40.0 mg/kg/injection, schedule: Q04DX003 (ip), vehicle: saline with Tween-80): 95 % of control

SMILES: CC(c1ccc2ccccc2c1)C1CCCCC1C(=O)O (stereo unspecified)
- T/C [1]: 102 % of control
- T/C [2]: 100 % of control
- T/C [3]: 97 % of control

SMILES: Cn1nnc(-c2nn[nH]n2)n1
- T/C [4]: 105 % of control
- T/C [5]: 106 % of control
- T/C [6]: 104 % of control
- T/C [7]: 98 % of control
- T/C [8]: 94 % of control
- T/C [9]: 97 % of control

SMILES: COC1OC(COS(=O)(=O)c2ccc(C)cc2)C(O)C(O)C1O (stereo unspecified)
- T/C [4]: 100 % of control
- T/C [1]: 96 % of control
- T/C [6]: 95 % of control
- T/C [2]: 91 % of control
- T/C [8]: 94 % of control
- T/C [3]: 94 % of control

SMILES: [N-]=[N+]=CC(=O)CCC(NC(=O)OCc1ccccc1)C(=O)OCc1ccccc1 (stereo unspecified)
- T/C (endpoint: median survival time, dose: 200.0 mg/kg/injection, schedule: Q01DX009 (ip), vehicle: Klucel (hydroxypropylcellulose) (HPC)): 123 % of control and 96 % of control and 111 % of control
- T/C (endpoint: median survival time, dose: 400.0 mg/kg/injection, schedule: Q01DX009 (ip), vehicle: Klucel (hydroxypropylcellulose) (HPC)): 114 % of control

SMILES: NC(=O)OCCc1c2ccccc2nc2ccccc12
- T/C (endpoint: mean survival time, dose: 25.0 mg/kg/injection, schedule: Q04DX002 (ip), vehicle: other): 96 % of control
- T/C (endpoint: mean survival time, dose: 50.0 mg/kg/injection, schedule: Q04DX002 (ip), vehicle: other): 93 % of control
- T/C (endpoint: mean survival time, dose: 100.0 mg/kg/injection, schedule: Q04DX002 (ip), vehicle: other): 93 % of control
- T/C (endpoint: mean survival time, dose: 100.0 mg/kg/injection, schedule: Q04DX002 (ip), vehicle: saline with Tween-80): 105 % of control
- T/C (endpoint: mean survival time, dose: 400.0 mg/kg/injection, schedule: Q04DX002 (ip), vehicle: saline with Tween-80): 105 % of control

SMILES: CCCc1nc2[nH]cnc(=S)c2[nH]1
- T/C (endpoint: mean survival time, dose: 12.5 mg/kg/injection, schedule: Q01DX005 (ip), vehicle: other): 110 % of control
- T/C (endpoint: mean survival time, dose: 25.0 mg/kg/injection, schedule: Q01DX005 (ip), vehicle: other): 108 % of control
- T/C (endpoint: mean survival time, dose: 50.0 mg/kg/injection, schedule: Q01DX005 (ip), vehicle: other): 96 % of control

SMILES: CC(C)(C)c1cc(/C=N/NC(=O)CNC(=O)NCc2ccco2)cc(C(C)(C)C)c1O
- T/C (endpoint: mean survival time, dose: 50.0 mg/kg/injection, schedule: Q01DX009 (ip), vehicle: saline with Tween-80): 93 % of control
- T/C [1]: 101 % of control
- T/C [2]: 104 % of control

SMILES: CC(=O)C(=O)Sc1ccccc1
- T/C (endpoint: mean survival time, dose: 12.5 mg/kg/injection, schedule: Q04DX002 (ip), vehicle: Klucel (hydroxypropylcellulose) (HPC)): 94 % of control
- T/C (endpoint: mean survival time, dose: 25.0 mg/kg/injection, schedule: Q04DX002 (ip), vehicle: Klucel (hydroxypropylcellulose) (HPC)): 105 % of control
- T/C (endpoint: mean survival time, dose: 50.0 mg/kg/injection, schedule: Q04DX002 (ip), vehicle: Klucel (hydroxypropylcellulose) (HPC)): 90 % of control

SMILES: COc1ccc2c(c1)N(CCC1CCCCN1C)c1ccccc1S2 (stereo unspecified)
- T/C (endpoint: mean survival time, dose: 6.25 mg/kg/injection, schedule: Q04DX003 (ip), vehicle: saline): 93 % of control and 100 % of control
- T/C (endpoint: mean survival time, dose: 12.5 mg/kg/injection, schedule: Q04DX003 (ip), vehicle: Klucel (hydroxypropylcellulose) (HPC)): 97 % of control
- T/C (endpoint: mean survival time, dose: 12.5 mg/kg/injection, schedule: Q04DX003 (ip), vehicle: saline): 98 % of control and 100 % of control
- T/C (endpoint: mean survival time, dose: 25.0 mg/kg/injection, schedule: Q04DX003 (ip), vehicle: Klucel (hydroxypropylcellulose) (HPC)): 95 % of control
- T/C (endpoint: mean survival time, dose: 25.0 mg/kg/injection, schedule: Q04DX003 (ip), vehicle: saline): 101 % of control and 102 % of control
- T/C (endpoint: mean survival time, dose: 50.0 mg/kg/injection, schedule: Q04DX003 (ip), vehicle: Klucel (hydroxypropylcellulose) (HPC)): 97 % of control
- T/C (endpoint: mean survival time, dose: 50.0 mg/kg/injection, schedule: Q04DX003 (ip), vehicle: saline): 106 % of control
- T/C (endpoint: mean survival time, dose: 100.0 mg/kg/injection, schedule: Q04DX003 (ip), vehicle: Klucel (hydroxypropylcellulose) (HPC)): 103 % of control

SMILES: O=C(OCC1OC(n2cnc3cc(Cl)c(Cl)cc32)C(OC(=O)c2ccccc2)C1OC(=O)c1ccccc1)c1ccccc1 (stereo unspecified)
- T/C (endpoint: mean survival time, dose: 12.5 mg/kg/injection, schedule: Q01DX005 (ip), vehicle: distilled water + Tween-80): 95 % of control
- T/C (endpoint: mean survival time, dose: 25.0 mg/kg/injection, schedule: Q01DX005 (ip), vehicle: distilled water + Tween-80): 101 % of control
- T/C (endpoint: mean survival time, dose: 50.0 mg/kg/injection, schedule: Q01DX005 (ip), vehicle: distilled water + Tween-80): 93 % of control
- T/C (endpoint: mean survival time, dose: 100.0 mg/kg/injection, schedule: Q01DX005 (ip), vehicle: distilled water + Tween-80): 95 % of control

SMILES: CCOC(OCC)c1cc[n+](CCc2ccc(OC)c(OC)c2)cc1
- T/C (endpoint: mean survival time, dose: 100.0 mg/kg/injection, schedule: Q04DX003 (ip), vehicle: saline): 96 % of control

SMILES: NC(=S)N/N=C/c1ccc(Cl)cn1
- T/C (endpoint: mean survival time, dose: 4.89 mg/kg/injection, schedule: Q01DX009 (ip), vehicle: saline with Tween-80): 120 % of control
- T/C (endpoint: mean survival time, dose: 6.25 mg/kg/injection, schedule: Q04DX002 (ip), vehicle: saline with Tween-80): 100 % of control
- T/C (endpoint: mean survival time, dose: 12.5 mg/kg/injection, schedule: Q04DX002 (ip), vehicle: saline with Tween-80): 104 % of control and 108 % of control

SMILES: CC1(C)N=C(N)N=C(N)N1c1cccc(OCCOc2cccc(N)c2)c1
- T/C (endpoint: mean survival time, dose: 25.0 mg/kg/injection, schedule: Q01DX001 (ip), vehicle: Klucel (hydroxypropylcellulose) (HPC)): 97 % of control
- T/C (endpoint: mean survival time, dose: 50.0 mg/kg/injection, schedule: Q01DX001 (ip), vehicle: Klucel (hydroxypropylcellulose) (HPC)): 97 % of control

SMILES: CCOC(=O)c1cc2cc([N+](=O)[O-])ccc2[nH]1
- T/C [5]: 92 % of control
- T/C [7]: 87 % of control
- T/C [9]: 91 % of control

SMILES: CN(C)c1ccc(/C=N/NC(=O)CC2CCCCC2)cc1
- T/C [1]: 90 % of control
- T/C [2]: 93 % of control
- T/C [3]: 93 % of control

SMILES: CC1OC1c1ccc(-c2ccc(C3OC3C)cc2)cc1 (stereo unspecified)
- T/C (endpoint: mean survival time, dose: 150.0 mg/kg/injection, schedule: Q01DX Z (ip), vehicle: saline): 101 % of control

SMILES: N=C(N)c1ccc(/C=C/c2ccc(C(=N)N)cc2O)cc1
- T/C (endpoint: mean survival time, dose: 3.12 mg/kg/injection, schedule: Q01DX009 (ip), vehicle: water): 91 % of control
- T/C (endpoint: mean survival time, dose: 6.25 mg/kg/injection, schedule: Q01DX009 (ip), vehicle: water): 97 % of control
- T/C (endpoint: mean survival time, dose: 12.5 mg/kg/injection, schedule: Q01DX009 (ip), vehicle: water): 103 % of control
- T/C (endpoint: mean survival time, dose: 25.0 mg/kg/injection, schedule: Q01DX009 (ip), vehicle: water): 105 % of control
- T/C (endpoint: mean survival time, dose: 50.0 mg/kg/injection, schedule: Q01DX009 (ip), vehicle: water): 111 % of control

SMILES: CC1(C)OCC2OC3(CO)NP(=O)(N(CCCl)CCCl)OC3C2O1 (stereo unspecified)
- T/C (endpoint: mean survival time, dose: 62.5 mg/kg/injection, schedule: Q01DX001 (ip), vehicle: distilled water + Tween-80): 102 % of control
- T/C (endpoint: mean survival time, dose: 125.0 mg/kg/injection, schedule: Q01DX001 (ip), vehicle: distilled water + Tween-80): 101 % of control
- T/C (endpoint: mean survival time, dose: 250.0 mg/kg/injection, schedule: Q01DX001 (ip), vehicle: distilled water + Tween-80): 93 % of control

From PubChem BioAssay AID256 (DTP/NCI, 2004)
